Assay results as given in ChEMBL document CHEMBL1201862, “PubChem BioAssay data set” (2004).
Active and inactive are the calls of the source.

Columns and labels:
NADPH oxidase 1 = NADPH oxidase 1 (Homo sapiens, UniProt Q9Y5S8); type: functional, cell-based;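 note: Cell-based assay with luminescence read-out, IC50 derived from inhibitor dose-response curves; intracellular ROS from endogenous NOX1 in intact HT29 colon cancer cells; potency of inhibitors that lower the ROS luminescence signal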
[1] = target: Sphingosine 1-phosphate receptor 2 (Homo sapiens, UniProt O95136); assay: Dose Response Cell Based Assay for Agonists of the S1P2 Receptor of Purchased Analogues. [Related pubchem assays: 729, 843, 854, 736 ]; type: functional
[2] = target: Aryl hydrocarbon receptor (Homo sapiens, UniProt P35869); assay: Luminescence-based cell-based high throughput dose response assay for activators of the Aryl Hydrocarbon Receptor (AHR). [Related pubchem assays: 2796 (Primary screen (AHR activators in singlicate)), 2845 (Confirmation screen (AHR activators in triplicate)), 434939 (Counterscreen (PXR activators in triplicate)), 2804 (Summary (AHR activators))]; type: ADME
Estrogen receptor beta [3] = target: T1, Estrogen receptor beta (Homo sapiens, UniProt Q92731);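 note: recombinant ER-beta bound to coactivator SRC1 peptide in presence of estradiol agonist; inhibitors block coactivator peptide binding and lower the FRET signal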
T1 sequence (Q92731 whole entry): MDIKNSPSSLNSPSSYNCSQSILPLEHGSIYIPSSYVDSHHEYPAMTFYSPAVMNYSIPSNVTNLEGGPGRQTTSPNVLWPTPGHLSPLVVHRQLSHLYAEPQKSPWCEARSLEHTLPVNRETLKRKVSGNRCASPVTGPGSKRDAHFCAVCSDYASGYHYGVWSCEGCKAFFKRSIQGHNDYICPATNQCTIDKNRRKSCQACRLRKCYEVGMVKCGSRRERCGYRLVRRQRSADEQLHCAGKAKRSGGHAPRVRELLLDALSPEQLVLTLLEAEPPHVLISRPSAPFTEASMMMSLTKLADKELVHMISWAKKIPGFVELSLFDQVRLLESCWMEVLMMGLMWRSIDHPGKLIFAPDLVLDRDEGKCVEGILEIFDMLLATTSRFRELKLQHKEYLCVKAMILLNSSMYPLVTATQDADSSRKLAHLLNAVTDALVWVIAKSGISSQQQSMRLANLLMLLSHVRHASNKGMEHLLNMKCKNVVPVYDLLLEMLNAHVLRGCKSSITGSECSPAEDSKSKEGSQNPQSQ

Estrogen receptor beta [4] = target: T1, Estrogen receptor beta; assay: ERβ–SRC-3 coactivator interaction inhibitors, confirmation, orthogonal assay, biochemical, ELISA, streptavidin-HRP readout (AID 1060)
SUMO-activating enzyme [5] = target: T2, SUMO-activating enzyme (Homo sapiens, UniProt Q9UBT2); assay: SUMOylation inhibitor hit validation, confirmation, SUMOylation inhibitor project, biochemical, AlphaScreen (AID 2018); type: functional
T2 sequence (Q9UBE0 whole entry): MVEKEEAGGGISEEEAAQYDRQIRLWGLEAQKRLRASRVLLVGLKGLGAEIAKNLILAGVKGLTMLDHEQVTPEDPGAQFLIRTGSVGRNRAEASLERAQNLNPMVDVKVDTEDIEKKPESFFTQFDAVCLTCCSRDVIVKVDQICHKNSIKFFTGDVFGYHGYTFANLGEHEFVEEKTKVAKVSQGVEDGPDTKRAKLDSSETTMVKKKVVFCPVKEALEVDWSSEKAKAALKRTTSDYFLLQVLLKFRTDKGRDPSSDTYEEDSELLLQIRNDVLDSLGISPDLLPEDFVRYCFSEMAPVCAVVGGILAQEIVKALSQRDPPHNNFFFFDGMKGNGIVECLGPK
T2 sequence (Q9UBT2 whole entry): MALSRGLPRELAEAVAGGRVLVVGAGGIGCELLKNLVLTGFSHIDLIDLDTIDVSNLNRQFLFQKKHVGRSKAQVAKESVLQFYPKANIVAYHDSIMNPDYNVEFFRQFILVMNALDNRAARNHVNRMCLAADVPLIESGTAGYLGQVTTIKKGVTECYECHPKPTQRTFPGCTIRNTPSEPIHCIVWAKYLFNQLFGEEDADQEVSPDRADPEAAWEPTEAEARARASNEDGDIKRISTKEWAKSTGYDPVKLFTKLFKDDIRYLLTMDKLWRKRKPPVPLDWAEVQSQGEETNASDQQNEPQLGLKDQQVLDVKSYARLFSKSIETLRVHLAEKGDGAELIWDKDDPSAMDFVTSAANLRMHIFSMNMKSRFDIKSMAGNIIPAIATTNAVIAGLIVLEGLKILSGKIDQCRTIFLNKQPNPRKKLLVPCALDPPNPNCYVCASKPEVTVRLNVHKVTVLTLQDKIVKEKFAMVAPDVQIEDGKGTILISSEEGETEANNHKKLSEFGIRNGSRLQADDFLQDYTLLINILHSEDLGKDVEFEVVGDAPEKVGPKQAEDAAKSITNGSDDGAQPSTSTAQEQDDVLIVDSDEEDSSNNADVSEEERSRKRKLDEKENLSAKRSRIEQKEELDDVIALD

[6] = target: T3, Zinc finger protein mex-5 (Caenorhabditis elegans, UniProt Q9XUB2); assay: MEX-5/TCR-2 RNA interaction inhibitors, dose response, biochemical, C. elegans, fluorescence polarization (AID 1960)
T3 sequence (Q9XUB2 whole entry): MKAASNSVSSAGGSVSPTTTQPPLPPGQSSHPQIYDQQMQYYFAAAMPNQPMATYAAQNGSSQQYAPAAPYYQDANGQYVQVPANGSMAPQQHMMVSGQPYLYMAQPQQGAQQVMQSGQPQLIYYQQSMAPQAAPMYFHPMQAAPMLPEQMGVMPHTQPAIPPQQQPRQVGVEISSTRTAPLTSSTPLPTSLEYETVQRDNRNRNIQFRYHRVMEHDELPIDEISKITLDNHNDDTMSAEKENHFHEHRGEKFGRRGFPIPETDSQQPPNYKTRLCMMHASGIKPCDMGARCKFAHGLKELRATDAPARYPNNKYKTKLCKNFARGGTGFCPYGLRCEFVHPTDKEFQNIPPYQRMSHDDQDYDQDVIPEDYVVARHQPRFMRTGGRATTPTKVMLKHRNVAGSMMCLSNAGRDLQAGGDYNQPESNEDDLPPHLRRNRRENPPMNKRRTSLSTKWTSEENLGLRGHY

SUMO-activating enzyme [7] = target: T2, SUMO-activating enzyme; assay: inhibitors of in vitro SUMOylation cascade, primary screen, biochemical, HTRF, uHTS (AID 2006); type: protein-complex assay
[8] = enhancers of respiration in Yfh1-depleted yeast, dose response, Friedreich's ataxia, plus single-dose screen (AID 1465); type: functional;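 note: yeast depleted of Yfh1p frataxin homolog grown on glycerol needing respiration; WST-1 tetrazolium dye reduction as measure of cellular dehydrogenase metabolic activity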
[9] = target: T4, RNA-binding protein pos-1 (Caenorhabditis elegans, UniProt G5EF15); assay: inhibitors of POS-1/mex-3 RNA binding, dose response, biochemical, fluorescence polarization (AID 1964);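 note: purified POS-1 fused to maltose binding protein made in E. coli; potency of compounds blocking POS-1 binding to fluorescent RNA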
T4 sequence (G5EF15 whole entry): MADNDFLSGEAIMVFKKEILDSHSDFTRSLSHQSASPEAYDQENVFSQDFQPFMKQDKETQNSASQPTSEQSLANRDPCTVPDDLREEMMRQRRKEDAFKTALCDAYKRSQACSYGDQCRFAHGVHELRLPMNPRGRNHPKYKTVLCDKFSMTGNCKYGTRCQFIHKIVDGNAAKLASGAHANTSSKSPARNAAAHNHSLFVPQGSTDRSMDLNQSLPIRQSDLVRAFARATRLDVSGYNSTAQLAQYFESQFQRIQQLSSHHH

Cytochrome P450 2C19 = Cytochrome P450 2C19 (Homo sapiens, UniProt P33261); assay: qHTS Assay for Inhibitors and Substrates of Cytochrome P450 2C19. [Related pubchem assays: 410 ]; type: ADME; conditions: read-out: Potency
[10] = target: 5-hydroxytryptamine receptor 1A (Homo sapiens, UniProt P08908); type: functional
Chain of 5-hydroxytryptamine receptor 1A (P08908 whole entry): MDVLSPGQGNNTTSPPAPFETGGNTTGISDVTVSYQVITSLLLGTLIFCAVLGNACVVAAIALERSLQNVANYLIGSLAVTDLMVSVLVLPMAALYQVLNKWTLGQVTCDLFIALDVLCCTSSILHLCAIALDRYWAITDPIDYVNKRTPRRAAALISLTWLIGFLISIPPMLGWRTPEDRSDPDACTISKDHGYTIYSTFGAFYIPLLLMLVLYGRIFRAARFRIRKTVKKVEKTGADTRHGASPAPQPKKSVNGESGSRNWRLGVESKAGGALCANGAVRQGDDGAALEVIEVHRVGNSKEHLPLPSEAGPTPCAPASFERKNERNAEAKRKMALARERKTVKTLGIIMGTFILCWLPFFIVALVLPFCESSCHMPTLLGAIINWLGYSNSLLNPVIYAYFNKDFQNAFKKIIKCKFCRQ

[11] = target: Peroxisome proliferator-activated receptor gamma/Nuclear receptor coactivator 2 (Homo sapiens, UniProt P37231); assay: TR-FRET dose response biochemical High Throughput Screening assay for agonists of the steroid receptor coactivator 2 (SRC-2) recruitment by the peroxisome proliferator-activated receptor gamma (PPAR gamma): non-selective agonists. [Related pubchem assays: 1297, 1032 ]; type: functional
Chain of Peroxisome proliferator-activated receptor gamma/Nuclear receptor coactivator 2 (P37231 whole entry): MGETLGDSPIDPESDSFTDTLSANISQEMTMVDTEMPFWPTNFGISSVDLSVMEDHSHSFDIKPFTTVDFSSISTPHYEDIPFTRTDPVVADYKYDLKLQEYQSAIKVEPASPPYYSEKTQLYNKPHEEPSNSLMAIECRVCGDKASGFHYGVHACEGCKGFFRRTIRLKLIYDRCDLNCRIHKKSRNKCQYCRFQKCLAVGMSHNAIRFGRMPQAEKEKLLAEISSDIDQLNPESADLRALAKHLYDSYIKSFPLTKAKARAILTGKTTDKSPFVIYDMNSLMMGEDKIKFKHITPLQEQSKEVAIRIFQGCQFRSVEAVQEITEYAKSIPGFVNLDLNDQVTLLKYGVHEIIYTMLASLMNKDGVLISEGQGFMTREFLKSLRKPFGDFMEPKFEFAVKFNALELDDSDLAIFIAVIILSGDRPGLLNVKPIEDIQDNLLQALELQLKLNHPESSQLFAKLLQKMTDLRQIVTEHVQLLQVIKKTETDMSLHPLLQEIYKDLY
Chain of Peroxisome proliferator-activated receptor gamma/Nuclear receptor coactivator 2 (Q15596 whole entry, further chain): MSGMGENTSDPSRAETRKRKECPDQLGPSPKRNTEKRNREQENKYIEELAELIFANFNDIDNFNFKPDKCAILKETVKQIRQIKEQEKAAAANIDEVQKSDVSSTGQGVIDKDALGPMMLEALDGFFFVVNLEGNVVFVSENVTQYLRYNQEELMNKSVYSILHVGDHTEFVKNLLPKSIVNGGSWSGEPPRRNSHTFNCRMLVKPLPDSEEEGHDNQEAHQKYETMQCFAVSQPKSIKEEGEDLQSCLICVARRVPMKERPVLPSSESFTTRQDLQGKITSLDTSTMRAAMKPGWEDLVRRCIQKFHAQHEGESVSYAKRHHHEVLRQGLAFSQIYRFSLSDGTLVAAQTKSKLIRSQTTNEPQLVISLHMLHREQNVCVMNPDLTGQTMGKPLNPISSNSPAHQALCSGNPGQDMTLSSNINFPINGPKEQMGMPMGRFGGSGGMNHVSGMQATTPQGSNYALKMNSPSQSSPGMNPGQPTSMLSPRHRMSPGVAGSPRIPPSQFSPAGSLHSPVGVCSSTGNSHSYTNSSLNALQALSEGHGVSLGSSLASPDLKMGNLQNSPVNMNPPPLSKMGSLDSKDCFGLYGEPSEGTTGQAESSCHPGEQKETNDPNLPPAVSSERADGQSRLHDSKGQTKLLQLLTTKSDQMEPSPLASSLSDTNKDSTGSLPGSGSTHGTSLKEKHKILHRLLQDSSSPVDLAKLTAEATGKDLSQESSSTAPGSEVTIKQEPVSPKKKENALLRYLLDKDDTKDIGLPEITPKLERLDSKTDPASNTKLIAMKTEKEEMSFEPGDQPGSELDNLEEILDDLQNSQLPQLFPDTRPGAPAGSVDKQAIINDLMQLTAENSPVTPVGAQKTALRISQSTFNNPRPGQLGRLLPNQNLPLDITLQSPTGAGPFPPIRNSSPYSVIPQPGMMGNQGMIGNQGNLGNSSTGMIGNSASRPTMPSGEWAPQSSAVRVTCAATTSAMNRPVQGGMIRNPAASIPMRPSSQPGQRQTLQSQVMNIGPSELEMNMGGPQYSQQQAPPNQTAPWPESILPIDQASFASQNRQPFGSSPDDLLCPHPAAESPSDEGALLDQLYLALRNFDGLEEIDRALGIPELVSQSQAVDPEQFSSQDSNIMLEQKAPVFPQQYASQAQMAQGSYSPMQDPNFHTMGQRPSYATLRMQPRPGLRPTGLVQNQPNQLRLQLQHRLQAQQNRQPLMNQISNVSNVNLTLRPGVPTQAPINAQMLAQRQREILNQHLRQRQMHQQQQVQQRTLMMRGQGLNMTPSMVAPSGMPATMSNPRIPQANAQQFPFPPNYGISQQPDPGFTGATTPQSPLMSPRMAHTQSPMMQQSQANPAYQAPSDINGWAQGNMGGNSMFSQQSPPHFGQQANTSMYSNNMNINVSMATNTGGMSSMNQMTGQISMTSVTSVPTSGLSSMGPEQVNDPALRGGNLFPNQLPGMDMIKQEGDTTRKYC

[12] = target: Peroxisome proliferator-activated receptor gamma/Nuclear receptor coactivator 1 (Homo sapiens, UniProt P37231); assay: TR-FRET dose response biochemical High Throughput Screening assay for agonists of the steroid receptor coactivator 1 (SRC-1) recruitment by the peroxisome proliferator-activated receptor gamma (PPAR gamma): non-selective agonists. [Related pubchem assays (depositor defined):AID1300, AID1808, AID504735, AID631]; type: protein assay
[13] = target: Mothers against decapentaplegic homolog 3 (Homo sapiens, UniProt P84022); assay: SMAD3 transcription factor inhibitors, dose response (AID 715); type: functional
Chain of Mothers against decapentaplegic homolog 3 (P84022 whole entry): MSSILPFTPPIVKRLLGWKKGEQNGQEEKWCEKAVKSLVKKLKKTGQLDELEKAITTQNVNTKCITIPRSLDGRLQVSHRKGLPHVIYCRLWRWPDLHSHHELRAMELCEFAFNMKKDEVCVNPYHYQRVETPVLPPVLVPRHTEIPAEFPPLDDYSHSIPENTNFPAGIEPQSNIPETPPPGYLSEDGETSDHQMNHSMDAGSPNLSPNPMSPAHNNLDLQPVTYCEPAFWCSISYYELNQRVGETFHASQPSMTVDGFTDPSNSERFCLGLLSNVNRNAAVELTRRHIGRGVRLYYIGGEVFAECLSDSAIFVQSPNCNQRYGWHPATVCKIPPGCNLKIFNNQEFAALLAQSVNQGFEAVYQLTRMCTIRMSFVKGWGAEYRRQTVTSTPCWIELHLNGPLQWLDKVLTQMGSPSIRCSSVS

[14] = target: Peroxisome proliferator-activated receptor gamma/Nuclear receptor coactivator 3 (Homo sapiens, UniProt P37231); assay: TR-FRET dose response biochemical High Throughput Screening assay for agonists of the steroid receptor coactivator 3 (SRC-3) recruitment by the peroxisome proliferator-activated receptor gamma (PPAR gamma): non-selective agonists. [Related pubchem assays: 1301 (Confirmation screen.), 1048 (Primary screen.)]; type: functional
[15] = target: Peroxisome proliferator-activated receptor gamma/Nuclear receptor corepressor 2 (Homo sapiens, UniProt P37231+Q9Y618); assay: Counterscreen for NR2E3 inverse agonists: TR-FRET-based biochemical high throughput dose response assay to identify inverse agonists of the interaction between peroxisome proliferator-activated receptor gamma (PPARg) and nuclear receptor co-repressor 2 (NCOR2).; type: functional
Streptococcus = assay: Group A Streptococcus viability loss, dose response, counter-screen for streptokinase expression inhibitor project, luminescence, BacTiterGlo (AID 1915); type: functional, organism-based;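 note: potency for reduction of bacterial viability or growth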
[16] = target: Photoreceptor-specific nuclear receptor (Homo sapiens, UniProt Q9Y5X4); assay: NR2E3 inverse agonists, dose response, biochemical, TR-FRET (AID 463256); type: functional
Chain of Photoreceptor-specific nuclear receptor (Q9Y5X4 whole entry): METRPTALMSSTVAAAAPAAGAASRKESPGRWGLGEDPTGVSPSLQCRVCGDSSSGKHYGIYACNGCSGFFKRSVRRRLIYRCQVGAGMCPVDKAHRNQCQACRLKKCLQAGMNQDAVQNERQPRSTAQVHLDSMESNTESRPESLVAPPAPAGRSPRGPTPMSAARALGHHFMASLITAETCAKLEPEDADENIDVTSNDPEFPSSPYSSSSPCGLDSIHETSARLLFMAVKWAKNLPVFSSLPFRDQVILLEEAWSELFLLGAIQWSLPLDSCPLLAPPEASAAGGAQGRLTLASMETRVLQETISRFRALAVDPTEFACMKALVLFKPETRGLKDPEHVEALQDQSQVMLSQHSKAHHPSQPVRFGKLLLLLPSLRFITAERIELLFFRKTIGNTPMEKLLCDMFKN

[17] = tested on: Streptococcus sp. 'group A'; assay: growth inhibition of control SK(-) GAS strain, dose response, counter-screen for streptokinase expression inhibitor project, luminescence, kanamycin, BacTiterGlo, confirmation (AID 1900); type: functional, organism-based
Streptokinase A = target: T5, Streptokinase A (Streptococcus pyogenes serotype M1, UniProt P10520); assay: S. pyogenes streptokinase expression inhibitors, potency, dose response, plasminogen activation absorbance, OD405 (AID 1914); type: functional, Streptococcus pyogenes M1 GAS;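 note: secreted streptokinase activity via plasminogen activation per viability signal from cell pellet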
T5 sequence (P10520 whole entry): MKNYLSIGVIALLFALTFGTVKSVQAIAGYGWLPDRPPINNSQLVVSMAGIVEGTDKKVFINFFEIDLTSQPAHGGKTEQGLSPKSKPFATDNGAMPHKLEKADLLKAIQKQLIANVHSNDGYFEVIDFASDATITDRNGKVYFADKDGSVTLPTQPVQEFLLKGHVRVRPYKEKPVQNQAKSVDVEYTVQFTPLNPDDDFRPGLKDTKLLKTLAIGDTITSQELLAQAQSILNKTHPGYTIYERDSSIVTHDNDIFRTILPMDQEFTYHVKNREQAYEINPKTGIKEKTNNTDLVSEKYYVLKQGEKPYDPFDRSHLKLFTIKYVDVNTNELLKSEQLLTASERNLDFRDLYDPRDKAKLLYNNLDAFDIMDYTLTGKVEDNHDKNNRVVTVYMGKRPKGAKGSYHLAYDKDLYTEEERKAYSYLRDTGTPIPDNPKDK

Vero [18] = assay: host cell cytotoxicity of antiviral hits, dose response, cytotoxicity control for West Nile virus antiviral project, secondary assay (AID 1650); type: functional; conditions: Chlorocebus sabaeus
CAAX prenyl protease 2 = target: T6, CAAX prenyl protease 2 (Saccharomyces cerevisiae S288c, UniProt Q03530); type: biochemical
T6 sequence (Q03530 whole entry): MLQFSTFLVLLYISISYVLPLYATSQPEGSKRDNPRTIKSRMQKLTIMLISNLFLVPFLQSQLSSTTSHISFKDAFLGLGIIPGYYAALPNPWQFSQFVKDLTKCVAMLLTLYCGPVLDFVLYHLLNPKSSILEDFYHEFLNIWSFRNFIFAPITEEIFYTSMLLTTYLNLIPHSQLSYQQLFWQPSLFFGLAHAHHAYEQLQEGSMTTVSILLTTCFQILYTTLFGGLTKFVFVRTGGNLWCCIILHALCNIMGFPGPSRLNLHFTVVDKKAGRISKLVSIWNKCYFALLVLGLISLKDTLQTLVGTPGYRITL

Vero [19] = assay: West Nile virus antiviral activity, cell-based, CPE readout (AID 1621); type: functional; conditions: Chlorocebus sabaeus
[20] = target: T7, DNA repair and recombination protein RAD54-like (Homo sapiens, UniProt Q92698); assay: inhibitors of human RAD54 branch migration, confirmation, biochemical, fluorescence, cherry-picked samples, dose series (AID 651657); type: functional
T7 sequence (Q92698 whole entry): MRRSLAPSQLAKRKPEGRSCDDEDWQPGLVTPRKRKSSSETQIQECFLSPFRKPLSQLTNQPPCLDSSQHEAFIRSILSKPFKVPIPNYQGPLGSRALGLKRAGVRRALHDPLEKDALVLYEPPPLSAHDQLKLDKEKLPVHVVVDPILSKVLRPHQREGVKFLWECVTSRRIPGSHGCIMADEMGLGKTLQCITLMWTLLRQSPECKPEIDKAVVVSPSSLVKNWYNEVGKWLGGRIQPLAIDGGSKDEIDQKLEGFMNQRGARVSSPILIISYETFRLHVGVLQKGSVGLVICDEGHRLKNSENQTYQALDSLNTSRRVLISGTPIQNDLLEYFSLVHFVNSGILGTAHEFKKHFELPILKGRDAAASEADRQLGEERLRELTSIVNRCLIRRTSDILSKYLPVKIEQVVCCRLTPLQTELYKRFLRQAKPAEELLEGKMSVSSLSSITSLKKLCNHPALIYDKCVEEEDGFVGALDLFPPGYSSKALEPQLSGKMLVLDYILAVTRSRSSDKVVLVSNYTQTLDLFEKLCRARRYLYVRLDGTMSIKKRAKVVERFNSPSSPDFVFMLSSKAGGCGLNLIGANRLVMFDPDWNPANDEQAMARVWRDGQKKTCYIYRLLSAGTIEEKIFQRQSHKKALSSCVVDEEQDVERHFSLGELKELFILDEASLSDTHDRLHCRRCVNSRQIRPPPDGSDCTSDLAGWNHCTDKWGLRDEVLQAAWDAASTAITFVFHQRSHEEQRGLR

[21] = target: T8, DNA repair protein RAD52 homolog (Homo sapiens, UniProt P43351); type: functional, biochemical
T8 sequence (P43351 whole entry): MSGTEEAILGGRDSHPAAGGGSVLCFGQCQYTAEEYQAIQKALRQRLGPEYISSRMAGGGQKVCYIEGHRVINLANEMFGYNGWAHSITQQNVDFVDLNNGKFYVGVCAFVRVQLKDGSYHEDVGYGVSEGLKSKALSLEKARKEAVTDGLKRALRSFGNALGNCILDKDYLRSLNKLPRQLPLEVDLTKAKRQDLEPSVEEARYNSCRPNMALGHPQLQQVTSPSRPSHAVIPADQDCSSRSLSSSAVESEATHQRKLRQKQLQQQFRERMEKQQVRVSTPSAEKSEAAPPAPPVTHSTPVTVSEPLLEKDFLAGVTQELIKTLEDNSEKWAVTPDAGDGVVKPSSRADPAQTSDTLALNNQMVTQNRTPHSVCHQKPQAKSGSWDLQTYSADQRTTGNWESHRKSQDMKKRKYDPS

Trypsin = Trypsin (Sus scrofa, UniProt P00761); assay: porcine trypsin inhibitors, dose response, selectivity assay for Rce1 protease inhibitor project, biochemical, quenched peptide fluorescence, cherry-pick (AID 488789)
Chain of Trypsin (P00761 whole entry): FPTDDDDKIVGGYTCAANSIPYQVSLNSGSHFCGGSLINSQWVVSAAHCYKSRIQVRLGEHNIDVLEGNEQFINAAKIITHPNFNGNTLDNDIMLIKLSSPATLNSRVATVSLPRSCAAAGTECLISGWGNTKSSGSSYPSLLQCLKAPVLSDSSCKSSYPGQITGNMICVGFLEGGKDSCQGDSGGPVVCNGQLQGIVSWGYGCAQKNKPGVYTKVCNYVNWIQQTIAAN

Bcl-2-like protein 10 = Bcl-2-like protein 10 (Homo sapiens, UniProt Q9HD36); assay: Biochemical TR3 FP assay of Bcl-B inhibitor potency, EC50 (AID 1243); type: functional

Structure (SMILES): C=C(NNc1c(Cl)c(Cl)nc(C(=O)O)c1Cl)c1ccc2c(c1)OCCO2
- IC50 (NADPH oxidase 1): > 17 µM (not active)

Structure (SMILES): Cc1cc(C(=O)CN2C(=O)C(=O)N(C3CCCC3)C2=O)c(C)n1Cc1ccccc1
- EC50 [1]: > 30 µM (not active)

Structure (SMILES): Cc1nc(C)c(C(=O)N/N=C/c2c[nH]c3ccccc23)s1
- EC50 [2]: > 91.7 µM (not active)

Structure (SMILES): O=C(c1cc2ncc(Br)cn2n1)N1CCOCC1
- IC50 (Estrogen receptor beta [3]): 9.16 µM (active)
- IC50 (Estrogen receptor beta [4]): 23 µM (not active)

Structure (SMILES): COc1cc([N+](=O)[O-])cc(/C=N/NC(=O)CC#N)c1O
- IC50 (SUMO-activating enzyme [5]): 1.15 µM (active)
- EC50 [6]: > 300 µM (inconclusive)
- IC50 (SUMO-activating enzyme [7]): 8.76 µM (active)
- EC50 [8]: > 100 µM (active)
- EC50 [9]: > 300 µM (inconclusive)

Structure (SMILES): CC(C)C[C@H](NC(=O)[C@@H](NC(=O)N[C@@H](Cc1ccccc1)C(=O)O)[C@H]1CCN=C(N)N1)C(=O)N[C@H](C=O)Cc1ccccc1
- AC50 (Cytochrome P450 2C19): 10 µM (inconclusive)

Structure (SMILES): Cc1c(CN2CCN(c3cccc(C(F)(F)F)c3)CC2)c(=O)n(-c2ccccc2)n1C
- EC50 [10]: > 50 µM (not active)

Structure (SMILES): CCN1CCCC1CNC(=O)CSc1cc(=O)n(C)c2cc(Cl)ccc12 (stereo not drawn)
- EC50 [11]: > 79.4 µM (not active)
- EC50 [12]: > 79.4 µM (inactive)
- IC50 [13]: 8.7 µM (active)
- EC50 [14]: > 79.4 µM (not active)

Structure (SMILES): O=C(COc1ccc(Cl)cc1Cl)Nc1ccc(-c2ccc(N3CCOCC3)nn2)cc1
- IC50 [15]: 1.51 µM (active)
- EC50 (Streptococcus): > 150 µM (not active)
- IC50 [16]: 1.43 µM (active)
- EC50 [17]: > 150 µM (not active)
- EC50 (Streptokinase A): > 150 µM (not active)

Structure (SMILES): CCN(CC)CCCNC(=O)c1cc2c(-c3cccc(OC)c3)nn(C)c2s1
- CC50 (Vero [18]): > 100 µM (active)
- AC50 (CAAX prenyl protease 2): 77.8 µM (active)
- IC50 (Vero [19]): 19.9 µM (active)
- AC50 [20]: 34.1 µM (active)
- AC50 [21]: 6.07 µM (active)
- AC50 (Trypsin): 9.95 µM (active)

Structure (SMILES): Nc1ccc(Oc2ccc(N)c(N)c2)cc1N
- EC50 (Bcl-2-like protein 10): 5.37 µM (active)
